Laboratory results published in patent US11629135B2 (JUBILANT PRODEL LLC, priority 2017, dated 2023).
pIC50: −log10 of the molar value.

Molecular target: T1, PD-1/PD-L1 interaction (Homo sapiens, UniProt Q9NZQ7)
T1 construct: Tag1 or Tag2 (undisclosed kit tag); purchased CisBio 63ADK000CPAPEG
Test: PD-1/PD-L1 Homogenous Time-Resolved Fluorescence (HTRF) binding assay
Details: Biochemical PD1/PD-L1 inhibition
Method: PD-L1 Enzyme Assay: Homogenous Time-Resolved Fluorescence (HTRF) Binding Assay
All binding studies were performed using PD-1/PD-L1 Binding Assay Kit from CisBio (Catalog #63ADK000CPAPEG), according to the manufacturer's protocol. The interaction between Tag1-PD-1 and […] was detected by anti-Tag1-Eu^3+ (HTRF donor) and anti-Tag2-XL665 (HTRF acceptor). When the donor and acceptor antibodies were brought to close proximity due to PD-1 and PD-L1 binding, excitation of the donor antibody triggered fluorescent resonance energy transfer (FRET) towards the acceptor antibody, which in turn emitted specifically at 665 nm. This specific signal is positively proportional to PD-1/PD-L1 interaction. The compounds blocking PD-1/PD-L1 interaction will cause a reduction in HTRF signal. The necessary reagents were mixed in the following order: 2 μl compounds (or diluents buffer), 4 μl PD-L1 protein, 4 μl PD-1 protein. After an incubation of 15 minutes, 5 μl of anti-Tag1-Eu^3+ and 5 μl of anti-Tag2-XL665 were added. The plate was sealed and incubated at RT for 1 h. The fluorescence emission was read at two different wavelengths (665 nm and 620 nm) on a BMG PheraStar® multiplate reader. Results were calculated from the 665 nm and 620 nm fluorescence signal and expressed in HTRF ratio=(665 nm/620 nm)×[…].

T1 sequence (Q9NZQ7 19-238 limits assumed): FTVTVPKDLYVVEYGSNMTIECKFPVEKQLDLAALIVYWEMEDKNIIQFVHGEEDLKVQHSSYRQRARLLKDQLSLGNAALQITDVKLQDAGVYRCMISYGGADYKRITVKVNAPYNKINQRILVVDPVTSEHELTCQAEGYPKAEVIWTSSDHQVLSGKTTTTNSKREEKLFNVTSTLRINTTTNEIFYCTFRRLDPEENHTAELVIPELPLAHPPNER

First: Cc1c(COc2ncc(CN3CCCCC3C(=O)O)c(OCc3ccccc3)n2)cccc1-c1ccccc1 (stereo not drawn) [Compound 33, 1-((4-(benzyloxy)-2-((2-methyl-[1,1′-biphenyl]-3-yl)methoxy)pyrimidin-5-yl)methyl)piperidine-2-carboxylic acid]
Second: Cc1nc(OCc2cccc(-c3ccccc3)c2C)ncc1CN1CCCC[C@H]1C(=O)O [Compound 64, (S)-1-((4-methyl-2-((2-methyl-[1,1′-biphenyl]-3-yl)methoxy)pyrimidin-5-yl)methyl)piperidine-2-carboxylic acid]
The pIC50 of the first is lower: < 6.30 for the first, > 7.00 for the second. The second is the more potent here.

First: COc1nc(OCc2cccc(-c3ccccc3)c2C)nc(OC)c1CN1C[C@H](O)C[C@H]1C(=O)O [Compound 34, (2S,4R)-1-((4,6-dimethoxy-2-((2-methyl-[1,1′-biphenyl]-3-yl)methoxy)pyrimidin-5-yl)methyl)-4-hydroxypyrrolidine-2-carboxylic acid]
Second: COc1nc(OCc2cccc(-c3ccccc3)c2C)nc(OC)c1CN1CCC[C@H]1C(=O)O [Compound 36, ((4,6-dimethoxy-2-((2-methyl-[1,1′-biphenyl]-3-yl)methoxy)pyrimidin-5-yl)methyl)-L-proline]
The pIC50 of the first is higher: > 7.00 for the first, 6.30 to 7.00 for the second. The first is the more potent here.

Compared with `COc1nc(OCc2cccc(-c3ccccc3)c2C)nc(OC)c1CNC(CO)(CO)CO` [Compound 35, 2-(((4,6-dimethoxy-2-((2-methyl-[1,1′-biphenyl]-3-yl)methoxy)pyrimidin-5-yl)methyl)amino)-2-(hydroxymethyl)propane-1,3-diol], `CCOc1nc(OCc2cccc(-c3ccccc3)c2C)nc(OCC)c1CNC(CO)(CO)CO` [Compound 41, 2-(((4,6-diethoxy-2-((2-methyl-[1,1′-biphenyl]-3-yl)methoxy)pyrimidin-5-yl)methyl)amino)-2-(hydroxymethyl)propane-1,3-diol] is lower in pIC50: > 7.00 for the first, 6.30 to 7.00 for the second. The first is the more potent here.

Going from `COC(=O)C1COCCN1Cc1c(OC)nc(OCc2cccc(-c3ccccc3)c2C)nc1OC` (stereo not drawn) [Compound 37, Methyl 4-((4,6-dimethoxy-2-((2-methyl-[1,1′-biphenyl]-3-yl)methoxy)pyrimidin-5-yl)methyl) morpholine-3-carboxylate] to `COc1nc(OCc2cccc(-c3ccccc3)c2C)nc(OC)c1CN1CCOCC1C(=O)O` (stereo not drawn) [Compound 38, 4-((4,6-dimethoxy-2-((2-methyl-[1,1′-biphenyl]-3-yl)methoxy)pyrimidin-5-yl)methyl)morpholine-3-carboxylic acid], the pIC50 rises from < 6.30 to > 7.00. The second is the more potent here.

`CCOc1nc(OCc2cccc(-c3ccccc3)c2C)nc(OCC)c1CN1C[C@H](O)C[C@H]1C(=O)O` [Compound 39, (2S,4R)-1-((4,6-diethoxy-2-((2-methyl-[1,1′-biphenyl]-3-yl)methoxy)pyrimidin-5-yl)methyl)-4-hydroxypyrrolidine-2-carboxylic acid] and `CCOc1nc(OCc2cccc(-c3ccccc3)c2C)nc(OCC)c1CN1CCCC[C@H]1C(=O)O` [Compound 40] fall in the same range of pIC50: 6.30 to 7.00 for the first, 6.30 to 7.00 for the second.

First: COc1nc(OCc2cccc(-c3ccccc3)c2C)nc(OC)c1CN1CCOC[C@H]1C(=O)O [Compound 43, (S)-4-((4,6-dimethoxy-2-((2-methyl-[1,1′-biphenyl]-3-yl)methoxy)pyrimidin-5-yl)methyl)morpholine-3-carboxylic acid]
Second: COc1nc(OCc2cccc(-c3ccccc3)c2C)nc(OC)c1CN1CCOCC1CC(=O)O (stereo not drawn) [Compound 44, 2-(4-((4,6-dimethoxy-2-((2-methyl-[1,1′-biphenyl]-3-yl)methoxy)pyrimidin-5-yl)methyl)morpholin-3-yl)acetic acid]
The pIC50 of the first is higher: > 7.00 for the first, 6.30 to 7.00 for the second.

First: COc1nc(OCc2cccc(-c3ccccc3)c2C)nc(OC)c1CN1CC2(CC2)C[C@H]1C(=O)O [Compound 46, (S)-5-((4,6-dimethoxy-2-((2-methyl-[1,1′-biphenyl]-3-yl)methoxy)pyrimidin-5-yl)methyl)-5-azaspiro[2.4]heptane-6-carboxylic acid]
Second: COc1nc(OCc2cccc(-c3ccccc3)c2C)ncc1CN1CC2(CC2)C[C@H]1C(=O)O [Compound 51, (S)-5-((4-methoxy-2-((2-methyl-[1,1′-biphenyl]-3-yl)methoxy)pyrimidin-5-yl)methyl)-5-azaspiro[2.4]heptane-6-carboxylic acid]
The pIC50 of the first is higher: > 7.00 for the first, < 6.30 for the second.

Going from `COc1nc(OCc2cccc(-c3ccccc3)c2C)nc(OC)c1CN1CCCC2(CCNC2=O)C1` (stereo not drawn) [Compound 47, 7-((4,6-dimethoxy-2-((2-methyl-[1,1′-biphenyl]-3-yl)methoxy)pyrimidin-5-yl)methyl)-2,7-diazaspiro[4.5]decan-1-one] to `COc1nc(OCc2cccc(-c3ccccc3)c2C)ncc1CN1CCCC2(CCNC2=O)C1` (stereo not drawn) [Compound 52, 7-((4-methoxy-2-((2-methyl-[1,1′-biphenyl]-3-yl)methoxy)pyrimidin-5-yl)methyl)-2,7-diazaspiro[4.5]decan-1-one], the pIC50 falls from > 7.00 to < 6.30. The first is the more potent here.

`COc1nc(OCc2cccc(-c3ccccc3)c2C)ncc1CN1CCN(C(C)=O)C[C@H]1C(=O)O` [Compound 49, (S)-4-acetyl-1-((4-methoxy-2-((2-methyl-[1,1′-biphenyl]-3-yl)methoxy)pyrimidin-5-yl)methyl)piperazine-2-carboxylic acid] and `COc1nc(OCc2cccc(-c3ccccc3)c2C)ncc1CN1CCNC[C@H]1C(=O)O` [Compound 50, (S)-1-((4-methoxy-2-((2-methyl-[1,1′-biphenyl]-3-yl)methoxy)pyrimidin-5-yl)methyl)piperazine-2-carboxylic acid] cannot be ordered by pIC50: < 6.30 for the first, < 6.30 for the second.

First: CC(=O)NCCNCc1cnc(OCc2cccc(-c3ccccc3)c2C)nc1OCc1ccc(F)c(C#N)c1 [Compound 53, N-(2-(((4-((3-cyano-4-fluorobenzyl)oxy)-2-((2-methyl-[1,1′-biphenyl]-3-yl)methoxy)pyrimidin-5-yl)methyl)amino)ethyl)acetamide]
Second: Cc1c(COc2ncc(CN3C[C@H](O)C[C@H]3C(=O)O)c(OCc3ccc(F)c(C#N)c3)n2)cccc1-c1ccccc1 [Compound 54, (2S,4R)-1-((4-((3-cyano-4-fluorobenzyl)oxy)-2-((2-methyl-[1,1′-biphenyl]-3-yl)methoxy)pyrimidin-5-yl)methyl)-4-hydroxypyrrolidine-2-carboxylic acid]
The pIC50 of the first is lower: < 6.30 for the first, 6.30 to 7.00 for the second. The second is the more potent here.

`COc1nc(OCc2cccc(-c3ccc4c(c3)OCCO4)c2C)nc(OC)c1CN1CCCC[C@H]1C(=O)O` [Compound 55, (S)-1-((2-((3-(2,3-dihydrobenzo[b][1,4]dioxin-6-yl)-2-methylbenzyl)oxy)-4,6-dimethoxypyrimidin-5-yl)methyl)piperidine-2-carboxylic acid] and `COc1nc(OCc2cccc(-c3ccc4c(c3)OCCO4)c2C)nc(OC)c1CNCCNC(C)=O` [Compound 56, N-(2-(((2-((3-(2,3-dihydrobenzo[b][1,4]dioxin-6-yl)-2-methylbenzyl)oxy)-4,6-dimethoxypyrimidin-5-yl)methyl)amino)ethyl)acetamide] cannot be ordered by pIC50: > 7.00 for the first, > 7.00 for the second.

`COc1ccc(-c2cccc(COc3nc(OC)c(CNCCNC(C)=O)c(OC)n3)c2C)cc1OC` [Compound 57, N-(2-(((2-((3′,4′-dimethoxy-2-methyl-[1,1′-biphenyl]-3-yl)methoxy)-4,6-dimethoxypyrimidin-5-yl)methyl)amino)ethyl)acetamide] and `COc1ccc(-c2cccc(COc3nc(OC)c(CN4C[C@H](O)C[C@H]4C(=O)O)c(OC)n3)c2C)cc1OC` [Compound 58] cannot be ordered by pIC50: < 6.30 for the first, < 6.30 for the second.

First: Cc1c(COc2ncc(CN3C[C@H](O)C[C@H]3C(=O)O)c(OCc3cncc(C#N)c3)n2)cccc1-c1ccccc1 [Compound 59, (2S,4R)-1-((4-((5-cyanopyridin-3-yl)methoxy)-2-((2-methyl-[1,1′-biphenyl]-3-yl)methoxy)pyrimidin-5-yl)methyl)-4-hydroxypyrrolidine-2-carboxylic acid]
Second: COc1nc(OCc2cccc(-c3ccccc3)c2C)ncc1CN1CCCC[C@H]1CC(=O)O [Compound 60, (S)-2-(1-((4-methoxy-2-((2-methyl-[1,1′-biphenyl]-3-yl)methoxy)pyrimidin-5-yl)methyl)piperidin-2-yl) acetic acid]
The pIC50 of the first is lower: < 6.30 for the first, 6.30 to 7.00 for the second.

`CC(=O)NCCNCc1cnc(OCc2cccc(-c3ccccc3)c2C)nc1C` [Compound 65, N-(2-(((4-methyl-2-((2-methyl-[1,1′-biphenyl]-3-yl)methoxy)pyrimidin-5-yl)methyl)amino)ethyl)acetamide] gave a pIC50 of 6.30 to 7.00.
